Where two headings read alike, the source gives them in different places.
Assays:
5-HT6 receptors = 5-HT6 receptors (Homo sapiens, UniProt P50406); assay: 5-HT6 receptor binding assay ([3H]-LSD radioligand); details: membranes from CHO-K1 cells with human 5-HT6 receptor, [3H]-LSD 1 nM
Procedure: (§1) Preparation of Solutions of Test and Reference Compounds.
(§2) 1 mM stock solutions of tested compounds were prepared in DMSO. Serial dilutions of compounds were prepared in 96-well microplate in assay buffers using automated pipetting system epMotion 5070 (Eppendorf). Each compound was tested in 10 concentrations from 1.0E-6 to 1.0E-11 M (final concentration).
5-HT6 Receptor Binding Assay.
Radioligand binding was performed using membranes from CHO-K1 cells stably transfected with the human 5-HT6 receptor (PerkinElmer). All assays were carried out in duplicates. 50 μl working solution of the tested compounds, 50 μl [3H]-LSD (final concentration 1 nM) and 150 μl diluted membranes (8 μg protein per well) prepared in assay buffer (50 mM Tris, pH 7.4, 10 mM MgCl2, 0.1 mM EDTA) were transferred to polypropylene 96 well microplate using 96-wells pipetting station Rainin Liquidator (MettlerToledo). Methiothepin (10 μM) was used to define nonspecific binding. Microplate was covered with a sealing tape, mixed and incubated for 60 minutes at 37° C. The reaction was terminated by rapid filtration through GF/A filter mate presoaked with 0.5% polyethyleneimine for 30 minutes. Ten rapid washes with 200 μl 50 mM Tris buffer (4° C., pH 7.4) were performed using automated harvester system Harvester-96 MACH III FM (Tomtec). The filter mates were dried at 37° C. in forced air fan incubator and then solid scintilator MeltiLex was melted on filter mates at 90° C. for 5 minutes. Radioactivity was counted in MicroBeta2 scintillation counter (PerkinElmer). Data were fitted to a one-site curve-fitting equation with Prism 6 (GraphPad Software) and Ki values were estimated from the Cheng-Prusoff equation.

[1] = system: scopolamine-induced deficits in learning and memory; assay: Scopolamine-induced deficits in step-through passive avoidance test in Wistar rats; assay type: in vivo; details: hydrochloride salt p.o. 180 min before training; scopolamine 0.3 mg/kg i.p.; male Wistar rats
Procedure: Biological Example 4. Effects of Compounds 1 and 17, on Scopolamine-Induced Deficits in Learning and Memory in the Passive Avoidance Test in Wistar Rats
Drug-naive male Wistar rats (Charles River, Sulzfeld, Germany) were used. Rats were housed four per standard plastic cage and kept in a room with constant environmental conditions (22±1° C., relative humidity 60%, a 12:12 light-dark cycle with lights on at 7:00 a.m.). Animals were supplied by the breeder 2-3 weeks before the onset of behavioral procedures. During this time, the subjects were weighted and handled several times. […]
Effects of tested compounds on learning and memory function were evaluated using a step-through passive avoidance test (Ishiyama et al., 2007). […]
In the training (acquisition) session, the animals were individually placed in the lighted compartment and allowed to explore it freely for 10 s. The sliding door was then opened, and the step-through latency for animals to enter the dark compartment was measured with a 300-s cut-off time. […]
The test (expression) session was performed 24 h after the training session using the same paradigm but without any foot-shock or drug injections. Step-through latencies for animals to enter the dark compartment were measured with a 300-s cut-off time. […]
Body weights (g) and training/test latencies (s) were analyzed with the aid of a one-way analysis of variance (ANOVA). […]

human 5-HT2A receptor = human 5-HT2A receptor (Homo sapiens, UniProt P28223); assay: 5-HT2A receptor binding assay ([3H]-ketanserin radioligand)
Procedure: as §1, §2
5-HT2A Receptor Binding Assay.
Radioligand binding was performed using membranes from CHO K1 cells stably transfected with the human 5-HT2A receptor (PerkinElmer). All assays were carried out in duplicates. 50 μl working solution of the tested compounds, 50 μl [3H]-ketanserin (final concentration 1 nM) and 150 μl diluted membranes (7 μg protein per well) prepared in assay buffer (50 mM Tris, pH 7.4, 4 mM CaCl2, 0.1% ascorbic acid) were transferred to polypropylene 96-well microplate using 96-wells pipetting station Rainin Liquidator (MettlerToledo). Mianserin (10 μM) was used to define nonspecific binding. Microplate was covered with a sealing tape, mixed and incubated for 60 minutes at 27° C. The reaction was terminated by rapid filtration through GF/B filter mate presoaked with 0.5% polyethyleneimine for 30 minutes. Ten rapid washes with 200 μl 50 mM Tris buffer (4° C., pH 7.4) were performed using automated harvester system Harvester-96 MACH III FM (Tomtec). The filter mates were dried at 37° C. in forced air fan incubator and then solid scintilator MeltiLex was melted on filter mates at 90° C. for 5 minutes. Radioactivity was counted in MicroBeta2 scintillation counter (PerkinElmer). Data were fitted to a one-site curve-fitting equation with Prism 6 (GraphPad Software) and Ki values were estimated from the Cheng-Prusoff equation.

Sequence of human 5-HT2A receptor (P28223 whole entry): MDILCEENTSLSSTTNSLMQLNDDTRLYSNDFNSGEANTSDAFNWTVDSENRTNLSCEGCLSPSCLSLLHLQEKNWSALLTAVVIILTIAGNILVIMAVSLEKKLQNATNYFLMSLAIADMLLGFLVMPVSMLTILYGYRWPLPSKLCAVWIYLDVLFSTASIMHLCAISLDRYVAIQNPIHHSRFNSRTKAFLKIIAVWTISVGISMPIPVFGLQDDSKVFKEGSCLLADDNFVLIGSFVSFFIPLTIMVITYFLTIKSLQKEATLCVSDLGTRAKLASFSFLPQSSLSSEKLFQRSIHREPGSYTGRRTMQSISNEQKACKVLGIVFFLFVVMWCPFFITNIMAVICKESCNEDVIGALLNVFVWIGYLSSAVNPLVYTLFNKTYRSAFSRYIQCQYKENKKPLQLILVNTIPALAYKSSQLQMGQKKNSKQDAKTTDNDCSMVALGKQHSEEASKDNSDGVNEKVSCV
Sequence of 5-HT6 receptors (P50406 whole entry): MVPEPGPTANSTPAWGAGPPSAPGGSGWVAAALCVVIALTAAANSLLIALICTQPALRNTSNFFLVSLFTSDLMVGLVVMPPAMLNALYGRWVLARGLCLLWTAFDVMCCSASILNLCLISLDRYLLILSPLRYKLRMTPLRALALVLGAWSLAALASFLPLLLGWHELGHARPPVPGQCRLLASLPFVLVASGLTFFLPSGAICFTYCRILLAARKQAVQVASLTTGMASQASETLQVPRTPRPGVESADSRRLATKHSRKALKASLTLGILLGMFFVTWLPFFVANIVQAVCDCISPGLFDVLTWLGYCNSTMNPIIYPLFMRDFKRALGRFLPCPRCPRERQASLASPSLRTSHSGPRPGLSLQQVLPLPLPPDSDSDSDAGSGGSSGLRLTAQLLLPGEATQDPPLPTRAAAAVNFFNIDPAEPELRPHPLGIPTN

Row | Structure (SMILES) | Ki (5-HT6 receptors) | minimal effective dose, elongation of step-through latencies in test session [1] | Ki (human 5-HT2A receptor; membranes from CHO K1 cells with human 5-HT2A receptor, [3H]-ketanserin 1 nM, read-out: 5-HT2A Ki) | Ki (human 5-HT2A receptor)
1 | FC(F)(F)c1nc2c(N3CCNCC3)cccc2n1Cc1ccccc1 [Compound 1, 1-benzyl-4-(piperazin-1-yl)-2-(trifluoromethyl)-1H-benzimidazole] | 1.3 nM | 3.0 mg/kg | 4.2 nM | –
2 | FC(F)(F)c1cc2c(N3CCNCC3)cccc2n1Cc1ccco1 [Compound 17, 1-(furan-2-ylmethyl)-4-(piperazin-1-yl)-2-(trifluoromethyl)-1H-indole] | 0.62 nM | 1.0 mg/kg | – | 1.6 nM

Reference: patent US20200377496A1, “INDOLE AND BENZIMIDAZOLE DERIVATIVES AS DUAL 5-HT2A and 5-HT6 RECEPTOR ANTAGONISTS” (ADAMED PHARMA, S.A., priority 2018, published 2020)
